According to PubChem BioAssay AID182 (DTP/NCI, 2004):
Inconclusive results and toxic doses are left out.

Tested on: BDF1 mice, P388/ADR leukemia ip, median survival T/C
Assay: NCI In Vivo Anticancer Drug Screen. Data for tumor model P388 Leukemia resistant to Adriamycin; NSC 123127, Developed at Scr 06 and 41 (intraperitoneal) in B6D2F1 (BDF1) mice
Details: endpoint: median survival time, higher = longer survival
Protocol: The antitumor activity of compounds was measured in mice bearing transplantable tumors. Survival or tumor size were measured and the results are expressed as the measurement made in the treated group (T) divided by the measurement made in the vehicle treated control group (C). The tumor model used in this assay is P388 Leukemia resistant to Adriamycin; NSC 123127, Developed at Scr 06 and 41 (intraperitoneal) in B6D2F1 (BDF1) mice

[1] = dose: 108.0 mg/kg/injection, schedule: Q04DX003 (ip), vehicle: Klucel (hydroxypropylcellulose) (HPC)
[2] = dose: 180.0 mg/kg/injection, schedule: Q04DX003 (ip), vehicle: Klucel (hydroxypropylcellulose) (HPC)

`CC(CN1CC(=O)NC(=O)C1)N1CC(=O)NC(=O)C1` (stereo unspecified) was tested, and the T/C (dose: 86.4 mg/kg/injection, schedule: Q04DX003 (ip), vehicle: Klucel (hydroxypropylcellulose) (HPC)) was 106 % of control, the T/C (dose: 100.0 mg/kg/injection, schedule: Q04DX003 (ip), vehicle: Klucel (hydroxypropylcellulose) (HPC)) was 100 % of control and the T/C [1] was 104 % of control. The T/C (dose: 144.0 mg/kg/injection, schedule: Q04DX003 (ip), vehicle: Klucel (hydroxypropylcellulose) (HPC)) was 122 % of control, the T/C [2] was 102 % of control and the T/C (dose: 200.0 mg/kg/injection, schedule: Q04DX003 (ip), vehicle: Klucel (hydroxypropylcellulose) (HPC)) was 93 % of control. The T/C (dose: 216.0 mg/kg/injection, schedule: Q04DX003 (ip), vehicle: Klucel (hydroxypropylcellulose) (HPC)) was 107 % of control, the T/C (dose: 300.0 mg/kg/injection, schedule: Q04DX003 (ip), vehicle: Klucel (hydroxypropylcellulose) (HPC)) was 102 % of control and the T/C (dose: 400.0 mg/kg/injection, schedule: Q04DX003 (ip), vehicle: Klucel (hydroxypropylcellulose) (HPC)) was 93 % of control.
In the case of `CO[C@H](C(=O)[C@@H](O)[C@@H](C)O)[C@@H]1Cc2cc3cc(OC4CC(OC5CC(O)C(O)C(C)O5)C(O)C(C)O4)c(C)c(O)c3c(O)c2C(=O)[C@H]1OC1CC(OC2CC(OC3CC(C)(O)C(O)C(C)O3)C(O)C(C)O2)C(O)C(C)O1` (stereo partly specified), the T/C (dose: 0.32 mg/kg/injection, schedule: Q01DX005 (ip), vehicle: water) is reported as 91 % of control, the T/C (dose: 0.54 mg/kg/injection, schedule: Q01DX005 (ip), vehicle: water) is reported as 95 % of control and the T/C (dose: 0.65 mg/kg/injection, schedule: Q04DX003 (ip), vehicle: water) is reported as 89 % of control.
In the case of `CO[C@H]1C[C@](C)(O)Cc2cc3c(c(O)c21)C(=O)c1c(O)cc2c(c1C3=O)O[C@@H]1O[C@@]2(C)[C@H](O)[C@@H](N(C)C)[C@@H]1O`, the T/C (dose: 18.0 mg/kg/injection, schedule: Q04DX003 (ip), vehicle: lactate) is reported as 112 % of control, the T/C (dose: 30.0 mg/kg/injection, schedule: Q04DX003 (ip), vehicle: lactate) is reported as 116 % of control and the T/C (dose: 50.0 mg/kg/injection, schedule: Q04DX003 (ip), vehicle: lactate) is reported as 94 % of control.
In the case of `COc1cc2c[n+](C)c3c4cc5c(cc4ccc3c2cc1OC)OCO5`, the T/C (dose: 28.8 mg/kg/injection, schedule: Q04DX003 (ip), vehicle: Klucel (hydroxypropylcellulose) (HPC)) is reported as 123 % of control, the T/C (dose: 48.0 mg/kg/injection, schedule: Q04DX003 (ip), vehicle: Klucel (hydroxypropylcellulose) (HPC)) is reported as 105 % of control and the T/C (dose: 55.0 mg/kg/injection, schedule: Q04DX003 (ip), vehicle: other) is reported as 107 % of control. For the same compound, the T/C (dose: 80.0 mg/kg/injection, schedule: Q04DX003 (ip), vehicle: Klucel (hydroxypropylcellulose) (HPC)) was 124 % of control and the T/C (dose: 92.0 mg/kg/injection, schedule: Q04DX003 (ip), vehicle: other) was 106 % of control.
For `COc1ccc(CC2C(=O)NC(C)C(=O)N(C)C3Cc4ccc(cc4)Oc4cc(ccc4O)CC(C(=O)NC(C)C(=O)NC(C)C(=O)N2C)N(C)C3=O)cc1` (stereo unspecified), the T/C (dose: 4.32 mg/kg/injection, schedule: Q04DX003 (ip), vehicle: other) was 109 % of control, the T/C (dose: 7.2 mg/kg/injection, schedule: Q04DX003 (ip), vehicle: other) was 94 % of control and the T/C (dose: 12.0 mg/kg/injection, schedule: Q04DX003 (ip), vehicle: other) was 88 % of control.
`COc1cc(O)c2c(c1)C(=O)c1cc3c(c(O)c1C2=O)C(OC1OC(C)C(O)C(O)C1OC)C(OC)C(C)(O)C3=O` (stereo unspecified) was tested, and the T/C (dose: 25.9 mg/kg/injection, schedule: Q01DX009 (ip), vehicle: Klucel (hydroxypropylcellulose) (HPC)) was 96 % of control, the T/C (dose: 43.2 mg/kg/injection, schedule: Q01DX009 (ip), vehicle: Klucel (hydroxypropylcellulose) (HPC)) was 96 % of control and the T/C (dose: 72.0 mg/kg/injection, schedule: Q01DX009 (ip), vehicle: Klucel (hydroxypropylcellulose) (HPC)) was 99 % of control. The T/C [1] was 100 % of control, the T/C (dose: 120.0 mg/kg/injection, schedule: Q01DX009 (ip), vehicle: Klucel (hydroxypropylcellulose) (HPC)) was 103 % of control and the T/C [2] was 105 % of control.
With `CC1CC(C)(O)CC(C(O)CC2CC(=O)NC(=O)C2)C1=O` (stereo unspecified) the T/C (dose: 0.72 mg/kg/injection, schedule: Q04DX003 (ip), vehicle: saline) was 120 % of control, the T/C (dose: 0.78 mg/kg/injection, schedule: Q04DX003 (ip), vehicle: saline) was 124 % of control and the T/C (dose: 2.16 mg/kg/injection, schedule: Q04DX003 (ip), vehicle: saline) was 91 % of control. The T/C (dose: 173.0 micrograms/kg/injection, schedule: Q01DX009 (ip), vehicle: saline) was 103 % of control, the T/C (dose: 288.0 micrograms/kg/injection, schedule: Q01DX009 (ip), vehicle: saline) was 112 % of control and the T/C (dose: 480.0 micrograms/kg/injection, schedule: Q01DX009 (ip), vehicle: saline) was 92 % of control.
`Cc1c(N)nc([C@H](CC(N)=O)NC[C@H](N)C(N)=O)nc1C(=O)N[C@H](C(=O)N[C@H](C)[C@@H](O)[C@H](C)C(=O)N[C@H](C(=O)NCCc1nc(-c2nc(C(=O)NCCC[S+](C)C)cs2)cs1)[C@@H](C)O)C(OC1OC(CO)C(O)C(O)C1OC1OC(CO)C(O)C(OC(N)=O)C1O)c1cnc[nH]1` (stereo partly specified) was tested, and the T/C (dose: 2.88 mg/kg/injection, schedule: Q01DX009 (ip), vehicle: saline) was 105 % of control, the T/C (dose: 4.8 mg/kg/injection, schedule: Q01DX009 (ip), vehicle: saline) was 107 % of control and the T/C (dose: 6.5 mg/kg/injection, schedule: Q01DX009 (ip), vehicle: saline) was 110 % of control. For the same compound, the T/C (dose: 8.0 mg/kg/injection, schedule: Q01DX009 (ip), vehicle: saline) was 105 % of control, the T/C (dose: 10.8 mg/kg/injection, schedule: Q01DX009 (ip), vehicle: saline) was 93 % of control and the T/C (dose: 13.33 mg/kg/injection, schedule: Q01DX009 (ip), vehicle: saline) was 103 % of control. For the same compound, the T/C (dose: 13.33 mg/kg/injection, schedule: Q04DX003 (ip), vehicle: saline) was 103 % of control, the T/C (dose: 18.0 mg/kg/injection, schedule: Q01DX009 (ip), vehicle: saline) was 95 % of control and the T/C (dose: 22.22 mg/kg/injection, schedule: Q04DX003 (ip), vehicle: saline) was 110 % of control. The T/C (dose: 30.0 mg/kg/injection, schedule: Q01DX009 (ip), vehicle: saline) was 90 % of control and the T/C (dose: 37.0 mg/kg/injection, schedule: Q04DX003 (ip), vehicle: saline) was 98 % of control.
In the case of `COC(=O)C[C@](O)(CCCC(C)(C)O)C(=O)O[C@@H]1C(OC)=C[C@]23CCCN2CCc2cc4c(cc2[C@H]13)OCO4`, the T/C (dose: 0.72 mg/kg/injection, schedule: Q04DX003 (ip), vehicle: acid diluted with saline) is reported as 100 % of control, the T/C (dose: 1.2 mg/kg/injection, schedule: Q04DX003 (ip), vehicle: acid diluted with saline) is reported as 103 % of control and the T/C (dose: 2.0 mg/kg/injection, schedule: Q04DX003 (ip), vehicle: acid diluted with saline) is reported as 110 % of control.
With `NC(C/[N+]([O-])=N/O)C(=O)O` (stereo unspecified) the T/C (dose: 288.0 mg/kg/injection, schedule: Q04DX003 (ip), vehicle: sodium bicarbonate) was 159 % of control and the T/C (dose: 480.0 mg/kg/injection, schedule: Q04DX003 (ip), vehicle: sodium bicarbonate) was 154 % of control.
`COc1cc([C@@H]2c3cc4c(cc3[C@@H](OC3OC5COC(C)OC5C(O)C3O)[C@H]3COC(=O)[C@H]23)OCO4)cc(OC)c1O` (stereo partly specified) was tested, and the T/C (dose: 18.0 mg/kg/injection, schedule: Q04DX003 (ip), vehicle: Klucel (hydroxypropylcellulose) (HPC)) was 110 % of control, the T/C (dose: 30.0 mg/kg/injection, schedule: Q04DX003 (ip), vehicle: Klucel (hydroxypropylcellulose) (HPC)) was 119 % of control and the T/C (dose: 50.0 mg/kg/injection, schedule: Q04DX003 (ip), vehicle: Klucel (hydroxypropylcellulose) (HPC)) was 112 % of control.
For `N[C@@H](Cc1ccc(N(CCCl)CCCl)cc1)C(=O)O`, the T/C (dose: 3.6 mg/kg/injection, schedule: Q01DX001 (ip), vehicle: saline) was 313 % of control, the T/C (dose: 6.0 mg/kg/injection, schedule: Q01DX001 (ip), vehicle: saline) was 507 % of control and the T/C (dose: 10.0 mg/kg/injection, schedule: Q01DX001 (ip), vehicle: saline) was 507 % of control. The T/C (dose: 16.7 mg/kg/injection, schedule: Q01DX001 (ip), vehicle: saline) was 406 % of control.
In the case of `CC[C@H]1CN2CCc3cc(OC)c(OC)cc3[C@@H]2C[C@@H]1C[C@H]1NCCc2c1[nH]c1ccc(OC)cc21`, the T/C (dose: 10.8 mg/kg/injection, schedule: Q04DX003 (ip), vehicle: acid diluted with saline) is reported as 108 % of control, the T/C (dose: 18.0 mg/kg/injection, schedule: Q04DX003 (ip), vehicle: acid diluted with saline) is reported as 107 % of control and the T/C (dose: 30.0 mg/kg/injection, schedule: Q04DX003 (ip), vehicle: acid diluted with saline) is reported as 110 % of control.
